Measured values taken from US4950662A, “2-oxa-isocephem compounds, compositions containing the same and processes for preparing the same” (Otsuka Pharmaceutical Co., Ltd., priority 1987, dated 1990).
≈ marks a conversion by molar mass, not a printed value. Read-outs that look alike come from different tables or passages of the source.

Assays:
[1] = system: S. aureus FDA-209-p; experiment: MIC by agar plate dilution method, S. aureus FDA-209-p; type: cell-based, Staphyloccocus aureus; settings: Staphylococcus aureus, FDA209, inoculum 1 x 10^6 cells/ml
Protocol: (§1) In order to investigate the in vitro activity of the under-mentioned compounds against various bacteria, the minimal inhibitory concentration (MIC) values were determined by the agar plate dilution method [see Chemotherapy, 22, 1123-1128 (1974)].
(§2) Each test inoculum was adjusted to I x 10^6 cells/ml (O.D., 600m : 0.07-0.16).

[2] = system: E. coli NIHJ; experiment: MIC by agar plate dilution method, E. coli NIHJ; type: cell-based; settings: Escherichia coli, inoculum 1 x 10^6 cells/ml
Protocol: as §1, §2

[3] = system: E. coli No. 29; experiment: MIC by agar plate dilution method, E. coli No. 29; type: cell-based; settings: Escherichia coli, inoculum 1 x 10^6 cells/ml
Protocol: as §1, §2

[4] = system: K. pneumoniae NCTC-9632; experiment: MIC by agar plate dilution method, K. pneumoniae NCTC-9632; type: cell-based; settings: Klebsiella pneumoniae, NCTC9632
Protocol: as §1, §2

[5] = system: P. mirabilis 1287; experiment: MIC by agar plate dilution method, P. mirabilis 1287; type: cell-based; settings: Proteus mirabilis, inoculum 1 x 10^6 cells/ml
Protocol: as §1, §2

[6] = system: M. morganii ATCC-25830; experiment: MIC by agar plate dilution method, M. morganii ATCC-25830; type: cell-based; settings: Morganella morganii, ATCC25830
Protocol: as §1, §2

[7] = system: S. marcescens IFO-12648; experiment: MIC by agar plate dilution method, S. marcescens IFO-12648; type: cell-based; settings: Serratia marcescens, IFO12648, inoculum 1 x 10^6 cells/ml
Protocol: as §1, §2

[8] = system: P. aeruginosa NCTC-10490; experiment: MIC by agar plate dilution method, P. aeruginosa NCTC-10490; type: cell-based; settings: Pseudomonas aeruginosa, NCTC10490, inoculum 1 x 10^6 cells/ml
Protocol: as §1, §2

[9] = system: P. mirabilis ATCC-29906; experiment: MIC by agar plate dilution method, P. mirabilis ATCC-29906; type: cell-based; settings: Proteus mirabilis, ATCC29906, inoculum 1 x 10^6 cells/ml
Protocol: as §1, §2

[10] = system: M. morganii IIDKono; experiment: MIC by agar plate dilution method, M. morganii IIDKono; type: cell-based; settings: Morganella morganii
Protocol: as §1, §2

[11] = system: S. marcescens ATCC-13880; experiment: MIC by agar plate dilution method, S. marcescens ATCC-13880; type: cell-based; settings: Serratia marcescens, ATCC13880, inoculum 1 x 10^6 cells/ml
Protocol: as §1, §2

[12] = K. pneumoniae NCTC-9632, inoculum 1 x 10^6 cells/ml, read-out: MIC
[13] = M. morganii ATCC-25830, inoculum 1 x 10^6 cells/ml, read-out: MIC
[14] = M. morganii IIDKono, inoculum 1 x 10^6 cells/ml, read-out: MIC

MIC [1] [µg/mL] | MIC [2] [µg/mL] | MIC [3] [µg/mL] | MIC [4, 12] [µg/mL] | MIC [5] [µg/mL] | MIC [7] [µg/mL] | MIC [8] [µg/mL] | MIC [6, 13] [µg/mL] | MIC [9] [µg/mL] | MIC [10, 14] [µg/mL] | MIC [11] [µg/mL] | Compound | MIC [6] [µg/mL] | MIC [4] [µg/mL] | MIC [10] [µg/mL]
0.1 (≈ 0.19 µM) | 0.05 (≈ 0.095 µM) | ≤ 0.05 | ≤ 0.025 | 0.05 (≈ 0.095 µM) | 0.39 (≈ 0.741 µM) | 25 (≈ 47.5 µM) | 0.2 (≈ 0.38 µM) |  |  |  | CC(C)O/N=C(\C(=O)N[C@@H]1C(=O)N2C(C(=O)[O-])=C(C[n+]3cccc4c3CCC4)OC[C@H]12)c1csc(N)n1 [No. 12, (6S,7S}-7-[2-(2-amino&hiazol-4-Yl}-2-isopropyloxyiminoacetamide]-3-[(6,7-dihydro-5H-1-pyridinio)]methyl]-Δ^3-0-2-isocephem-4-carboxylate (syn isomer)] |  |  | 
0.78 (≈ 1.47 µM) | ≤ 0.025 | ≤ 0.025 | ≤ 0.025 |  |  |  |  | ≤ 0.025 | ≤ 0.025 | 0.05 (≈ 0.0944 µM) | CO/N=C(\C(=O)N[C@@H]1C(=O)N2C(C(=O)[O-])=C(C[n+]3ccc(SCC#N)cc3)OC[C@H]12)c1csc(N)n1 [No. 6, (6S,7S)-7-[2-(2-aminothiazol-4-yl}-2-methoxyiminoaoetamide]-3-[(4-cyanomethyIthio-1-pyridinio)methyl]-Δ^3-0-2-isocephem-4-carboxylate (syn isomer)] |  |  | 
0.2 (≈ 0.406 µM) | 0.1 (≈ 0.203 µM) | 0.1 (≈ 0.203 µM) | 0.05 (≈ 0.102 µM) | 0.1 (≈ 0.203 µM) | 0.39 (≈ 0.792 µM) | 12.5 (≈ 25.4 µM) | 0.1 (≈ 0.203 µM) |  |  |  | CC(C)O/N=C(\C(=O)N[C@@H]1C(=O)N2C(C(=O)[O-])=C(C[N+]3(C)CCCC3)OC[C@H]12)c1csc(N)n1 [No. 10, (6S,7S)-7-[2-(2-aminothiazol-4-yl)-2-(3-isopropyloxyiminoacetamide]-3-(1-methyl-1pyrrolidinio)methyl-^66 ^3-0-2-isocephem-4-carboxylate (syn isomer)] |  |  | 
0.1 (≈ 0.173 µM) | 0.1 (≈ 0.173 µM) | 0.05 (≈ 0.0863 µM) | ≤ 0.025 | 0.05 (≈ 0.0863 µM) | 0.2 (≈ 0.345 µM) | 12.5 (≈ 21.6 µM) | 0.1 (≈ 0.173 µM) |  |  |  | Nc1nc(/C(=N/OC2CCCC2)C(=O)N[C@@H]2C(=O)N3C(C(=O)[O-])=C(C[n+]4ccc(-c5cnco5)cc4)OC[C@H]23)cs1 [No. 9, (6S,7S}-7-[2-(2-aminothiazol-4-yl)-2-cyclopentyloxyiminoacetamide]-3-[[4-(5-oxazolyl)-1-pyridinio]methyl]-Δ^3-0-2-isocephem-4carboxylate (syn isomer)] |  |  | 
0.2 (≈ 0.386 µM) | 0.1 (≈ 0.193 µM) | 0.1 (≈ 0.193 µM) | 0.1 (≈ 0.193 µM) | 0.2 (≈ 0.386 µM) | 0.39 (≈ 0.752 µM) | 12.5 (≈ 24.1 µM) | 0.2 (≈ 0.386 µM) |  |  |  | C[N+]1(CC2=C(C(=O)[O-])N3C(=O)[C@@H](NC(=O)/C(=N\OC4CCCC4)c4csc(N)n4)[C@H]3CO2)CCCC1 [No. 11, (6S,7S)-7-[2-(2-aminothiazol-4-yl)-2-cyclopentyloxyiminoacetamide]-3-(I-methyl-1-pyrrolidinio]methyl-Δ^3-0-2-isocephem-4-carboxylate (syn isomer)] |  |  | 
0.2 (≈ 0.381 µM) | ≤ 0.025 | ≤ 0.025 | ≤ 0.025 |  |  |  |  | ≤ 0.025 | ≤ 0.025 | 0.1 (≈ 0.191 µM) | CO/N=C(\C(=O)N[C@@H]1C(=O)N2C(C(=O)[O-])=C(C[n+]3ccc(-c4cc[nH]n4)cc3)OC[C@H]12)c1csc(N)n1 [No. 7, (6S,7S}-7-[2-[2-aminothiazol-4-Yl}-2-methoxyiminoacetamide]-3-[[4-(3-pyrazolyl)-1-pyridinio]methyl]-Δ^3-0-2-isocephem-4-carboxylate (syn isomer)] |  |  | 
0.1 (≈ 0.181 µM) | 0.05 (≈ 0.0907 µM) | 0.05 (≈ 0.0907 µM) | ≤ 0.025 | 0.1 (≈ 0.181 µM) | 0.2 (≈ 0.363 µM) | 12.5 (≈ 22.7 µM) | 0.2 (≈ 0.363 µM) |  |  |  | C=CCO/N=C(\C(=O)N[C@@H]1C(=O)N2C(C(=O)[O-])=C(C[n+]3ccc(-c4cnco4)cc3)OC[C@H]12)c1csc(N)n1 [No. 13, (6S,7S}-7-[2-(2-aminothiazol-4-Yl)-2-allyloxyiminoacetamide]-3-[[4-[5-oxazolyl)-1-pyridinio]methyl]-Δ^3-0-2-isocephem-4-carboxylate (syn isomer)] |  |  | 
0.78 (≈ 1.48 µM) | 0.1 (≈ 0.19 µM) | 0.05 (≈ 0.095 µM) | 0.2 (≈ 0.38 µM) |  |  |  |  | 0.2 (≈ 0.38 µM) | 0.1 (≈ 0.19 µM) | 0.2 (≈ 0.38 µM) | CO/N=C(\C(=O)N[C@@H]1C(=O)N2C(C(=O)[O-])=C(C[N+]3(C)CCc4ccccc4C3)OC[C@H]12)c1csc(N)n1 (stereo partly drawn) [No. 4, (6S,7S)-7-[2-(2-aminothiazol-4-Yl)-2-methoxyiminoacetamide]3-(2-methyl-2-1,2,3,4-tetrahydroisoquinoline-2-yl)methyl-Δ^3-0-2-isocephem-4-carboxylate (syn isomer)] |  |  | 
0.39 (≈ 0.761 µM) | 0.05 (≈ 0.0976 µM) | 0.05 (≈ 0.0976 µM) | 0.1 (≈ 0.195 µM) |  |  |  |  | 0.1 (≈ 0.195 µM) | 0.2 (≈ 0.39 µM) | 0.39 (≈ 0.761 µM) | CO/N=C(\C(=O)N[C@@H]1C(=O)N2C(C(=O)O)=C(CN3CCc4ccccc4C3)OC[C@H]12)c1csc(N)n1 [No. 3, (6S,7S}-7-[2-(2-aminothiazol-4-yl)-2-methoxyiminoacetamide]-3-(1,2,3,4-tetrahydroisoquinolyn-2-yl}methyl-Δ^3-0-2-isocephem-4-carboxylic acid (syn isomer)] |  |  | 
1.56 (≈ 3.46 µM) | 0.1 (≈ 0.222 µM) | 0.1 (≈ 0.222 µM) | 0.2 (≈ 0.444 µM) |  |  |  |  | 0.2 (≈ 0.444 µM) | 0.2 (≈ 0.444 µM) | 0.39 (≈ 0.866 µM) | CO/N=C(\C(=O)N[C@@H]1C(=O)N2C(C(=O)O)=C(CN3CCCC3)OC[C@H]12)c1csc(N)n1 [No. 1, (6S,7S)-7-[2-(2-aminothiazol-4-yI)-2-methoxyiminoacetamide]-3-(1-pyrolidinyl)methyl-Δ^3-0-2-isocephem-4-carboxylic acid (syn isomer)] |  |  | 

Compound | MIC [1] [µg/mL] | MIC [2] [µg/mL] | MIC [3] [µg/mL] | MIC [4, 12] [µg/mL] | MIC [5] [µg/mL] | MIC [7] [µg/mL] | MIC [8] [µg/mL] | MIC [6, 13] [µg/mL] | MIC [9] [µg/mL] | MIC [10, 14] [µg/mL] | MIC [11] [µg/mL] | MIC [6] [µg/mL] | MIC [4] [µg/mL] | MIC [10] [µg/mL]
CC(C)O/N=C(\C(=O)N[C@@H]1C(=O)N2C(C(=O)[O-])=C(C[n+]3ccc(-c4cnco4)cc3)OC[C@H]12)c1csc(N)n1 [No. 8, (6S,7S)-7-[2-(2-aminothiazol-4-yl}-2-isopropyloxyiminoacetamide]-3-[[4-(5-oxazolyl)-1-pyridinio]methyl]-Δ^3-0-2-isocephem-4-carboxylate (syn isomer)] | 0.2 (≈ 0.361 µM) | 0.05 (≈ 0.0903 µM) | ≤ 0.05 | ≤ 0.025 | 0.05 (≈ 0.0903 µM) | 0.2 (≈ 0.361 µM) | 25 (≈ 45.2 µM) |  |  |  |  | 0.05 (≈ 0.0903 µM) |  | 
CO/N=C(\C(=O)N[C@@H]1C(=O)N2C(C(=O)[O-])=C(C[N+]3(C)CCCC3)OC[C@H]12)c1csc(N)n1 [No. 2, (6S,7S)-7-[2-(2-aminothiazol-4-yl)-2-methoxyiminoacetamide]-3-(I-methyl-1-pyrrolidinio)methyl-Δ^3-0-2-isocephem-4-carboxylate (syn isomer)] | 0.39 (≈ 0.84 µM) | 0.05 (≈ 0.108 µM) | 0.05 (≈ 0.108 µM) |  |  |  |  |  | 0.1 (≈ 0.215 µM) | 0.1 (≈ 0.215 µM) | 0.1 (≈ 0.215 µM) |  | 0.05 (≈ 0.108 µM) | 
CO/N=C(\C(=O)N[C@@H]1C(=O)N2C(C(=O)[O-])=C(C[n+]3ccccc3)OC[C@H]12)c1csc(N)n1 [No. 5, (6S,7S)-7-[2-(2-aminothiazol-4-yl)-2-methoxyiminoacetamide]-3-[(1-pyridinio)methyl]-Δ^3-0-2-isocephem-4-carboxylate (syn isomer)] | 0.39 (≈ 0.851 µM) | 0.05 (≈ 0.109 µM) | 0.05 (≈ 0.109 µM) |  |  |  |  |  | 0.1 (≈ 0.218 µM) |  | 0.1 (≈ 0.218 µM) |  | 0.05 (≈ 0.109 µM) | 0.05 (≈ 0.109 µM)
